{
  "source": "PubChem BioAssay AID2060499",
  "about": "(Molecular Pharmacology Branch, DTP, NCI, 2025)",
  "system": "777334-354-R2-J4-PDC tumor spheroids with HUVEC/MSC, viability",
  "assay": "Anticancer human tumor 777334-354-R2-J4-PDC patient-derived pancreatic adenocarcinoma cell line growth inhibition [GQUAD]",
  "settings": "for IC50: curve of first compound; for viability, T/C: stronger effect = lower value",
  "from_the_text": "DNA G-quadruplex Stabilizer Agents in Combinations in Complex Spheroids\nA high-throughput screen of multi-cell type tumor spheroids was designed to identify active combinations of DNA G-quadruplex stabilizer agents and targeted small molecules. Complex spheroids include a stromal component modeled by human endothelial cells (HUVEC) and fibroblasts modeled by human mesenchymal stem cells (MSCs). The concentration ranges selected for each drug and investigational agent were based upon clinically achievable concentrations if the clinical Cmax of the agent was known.\nCompounds. The drugs and investigational agents: pidnarulex (CX-5461; NSC782164), APTO-253 (NSC789042), BRACO-19 (NSC847499), peposertib (NSC802822), ceralasertib (NSC780249), elimusertib (NSC800525), camonsertib (NSC841442), AZD-1390 (NSC803789), olaparib (NSC753686), talazoparib (NSC767125), ART-558 (NSC835418), sotorasib (NSC818433), MRTX-1133 (NSC836407), SN-38 (NSC673596), topotecan (NSC609699), etoposide (NSC141540), doxorubicin (NSC123127), gemcitabine (NSC613327), 5-fluorouracil (NSC19893), paclitaxel (NSC125973), vemurafenib (NSC761431), panobinostat (NSC761190), R-306465 (JNJ-16241199; NSC773264), adavosertib (NSC754352), TP-3654 (NSC805149), carboplatin (NSC241240), KSQ-4279 (NSC840948), and staurosporine (NSC755774) were obtained from the National Cancer Institute (NCI) Developmental Therapeutics Program Chemical Repository (34). The FDA-approved anticancer drug set is available from the NCI Developmental Therapeutics Program. […] The stock solutions were prepared in dimethyl sulfoxide (DMSO, Sigma-Aldrich, St. Louis, MO, cat. D2650) at 800-fold the tested concentration and stored at -70 degrees C prior to their use. All drugs and investigational agents were tested over a range starting from a high concentration at or near the clinical Cmax and decreasing in half-log increments. If the clinical Cmax for an agent had not been determined, the highest concentration tested was 10 microM.\n2.3 Cell Culture. All cells were maintained in an incubator at 37 degrees C and 5% CO2 with 95% humidity. The PDC lines were cultured according to standard operating procedures established by the NCI PDMR. All PDCs were thawed and cultured in Matrigel-coated flasks prepared with a working solution of 1X Ham's F-12 nutrient mix, without supplementation (Invitrogen, cat. 11765054), 100 U/mL penicillin-streptomycin (Invitrogen, cat. 15140122), and 2.5% Matrigel (Corning Inc., cat. 354248) for the first three passages. The 857933-349-R-J2-PDC line was cultured in 6C/Colon 1B media, which includes advanced DMEM/F-12 (Thermo Fisher Scientific, cat. 12634028), 10 mM HEPES (Thermo Fisher Scientific, cat. 15630080), 1X GlutaMAX supplement (Thermo Fisher Scientific, cat. 35050061), 0.1 mg/mL primocin (InvivoGen, cat. ant-pm-2), 10% defined fetal bovine serum, heat inactivated (HyClone Laboratories Inc., cat. SH30070.03HI), 50% L-WRN conditioned media (ATCC, cat. CRL-3276), 1.25 mM N-Acetyl-L-cysteine (Sigma-Aldrich, cat. A9165), 10 mM nicotinamide (Sigma-Aldrich, cat. N0636), 1X B-27 supplement (Thermo Fisher Scientific, cat. 17504044), 1X N-2 supplement (Thermo Fisher Scientific, cat. 17502048), 10 microM Y-27632 dihydrochloride (Tocris Bioscience, cat. 1254), and 50 ng/mL human EGF recombinant protein (Thermo Fisher Scientific, cat. PHG0311). The 485176-168-R4-J1-PDC line was cultured in Panc media, which includes all 6C/Colon 1B media components plus 100 ng/mL human FGF-10 (Thermo Fisher Scientific, cat. 100-26), 500 nM SB-431542 (Selleckchem, cat. S1067), and gastrin (Tocris, cat. 3006).\n[…]",
  "data": [
    {"molecule": "COc1cccc2c1C(=O)c1c(O)c3c(c(O)c1C2=O)CC(O)(C(=O)CO)CC3OC1CC(N)C(O)C(C)O1", "note": "(configuration not stated) + Cc1cnc(CNC(=O)c2c(=O)c3ccc(N4CCCN(C)CC4)nc3n3c2sc2ccccc23)cn1;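 also: spheroids exposed to compounds for 7 days before readout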", "values": [
      {"measurement": "IC50", "setting": "second compound 0.0316 µM", "value": 878, "unit": "nM"},
      {"measurement": "IC50", "setting": "second compound 0.1 µM", "value": 769, "unit": "nM"},
      {"measurement": "IC50", "setting": "second compound 0.316 µM", "value": 1040, "unit": "nM"},
      {"measurement": "IC50", "setting": "second compound 1 µM", "value": 869, "unit": "nM"},
      {"measurement": "IC50", "setting": "second compound 3.16 µM", "value": 684, "unit": "nM"},
      {"measurement": "IC50", "setting": "second compound 10 µM", "value": 399, "unit": "nM"},
      {"measurement": "viability, T/C", "setting": "second compound 0.0316 µM, first compound 0.0316 µM", "value": 88.3, "unit": "%"},
      {"measurement": "viability, T/C", "setting": "second compound 0.0316 µM, first compound 0.1 µM", "value": 87.2, "unit": "%"},
      {"measurement": "viability, T/C", "setting": "second compound 0.0316 µM, first compound 0.316 µM", "value": 81.8, "unit": "%"},
      {"measurement": "viability, T/C", "setting": "second compound 0.0316 µM, first compound 1 µM", "value": 44.3, "unit": "%"},
      {"measurement": "viability, T/C", "setting": "second compound 0.0316 µM, first compound 3.16 µM", "value": 23.4, "unit": "%"},
      {"measurement": "viability, T/C", "setting": "second compound 0.0316 µM, first compound 10 µM", "value": 11.9, "unit": "%"},
      {"measurement": "viability, T/C", "setting": "second compound 0.1 µM, first compound 0.0316 µM", "value": 83.8, "unit": "%"},
      {"measurement": "viability, T/C", "setting": "second compound 0.1 µM, first compound 0.1 µM", "value": 77.2, "unit": "%"},
      {"measurement": "viability, T/C", "setting": "second compound 0.1 µM, first compound 0.316 µM", "value": 76.8, "unit": "%"},
      {"measurement": "viability, T/C", "setting": "second compound 0.1 µM, first compound 1 µM", "value": 40.7, "unit": "%"},
      {"measurement": "viability, T/C", "setting": "second compound 0.1 µM, first compound 3.16 µM", "value": 22.5, "unit": "%"},
      {"measurement": "viability, T/C", "setting": "second compound 0.1 µM, first compound 10 µM", "value": 10.7, "unit": "%"},
      {"measurement": "viability, T/C", "setting": "second compound 0.316 µM, first compound 0.0316 µM", "value": 73.5, "unit": "%"},
      {"measurement": "viability, T/C", "setting": "second compound 0.316 µM, first compound 0.1 µM", "value": 80.8, "unit": "%"},
      {"measurement": "viability, T/C", "setting": "second compound 0.316 µM, first compound 0.316 µM", "value": 63.3, "unit": "%"},
      {"measurement": "viability, T/C", "setting": "second compound 0.316 µM, first compound 1 µM", "value": 52.1, "unit": "%"},
      {"measurement": "viability, T/C", "setting": "second compound 0.316 µM, first compound 3.16 µM", "value": 26.3, "unit": "%"},
      {"measurement": "viability, T/C", "setting": "second compound 0.316 µM, first compound 10 µM", "value": 6.61, "unit": "%"},
      {"measurement": "viability, T/C", "setting": "second compound 1 µM, first compound 0.0316 µM", "value": 63, "unit": "%"},
      {"measurement": "viability, T/C", "setting": "second compound 1 µM, first compound 0.1 µM", "value": 70.4, "unit": "%"},
      {"measurement": "viability, T/C", "setting": "second compound 1 µM, first compound 0.316 µM", "value": 67.3, "unit": "%"},
      {"measurement": "viability, T/C", "setting": "second compound 1 µM, first compound 1 µM", "value": 45.4, "unit": "%"},
      {"measurement": "viability, T/C", "setting": "second compound 1 µM, first compound 3.16 µM", "value": 21.8, "unit": "%"},
      {"measurement": "viability, T/C", "setting": "second compound 1 µM, first compound 10 µM", "value": 4.42, "unit": "%"},
      {"measurement": "viability, T/C", "setting": "second compound 3.16 µM, first compound 0.0316 µM", "value": 64.2, "unit": "%"},
      {"measurement": "viability, T/C", "setting": "second compound 3.16 µM, first compound 0.1 µM", "value": 64.1, "unit": "%"},
      {"measurement": "viability, T/C", "setting": "second compound 3.16 µM, first compound 0.316 µM", "value": 68, "unit": "%"},
      {"measurement": "viability, T/C", "setting": "second compound 3.16 µM, first compound 1 µM", "value": 40.9, "unit": "%"},
      {"measurement": "viability, T/C", "setting": "second compound 3.16 µM, first compound 3.16 µM", "value": 16, "unit": "%"},
      {"measurement": "viability, T/C", "setting": "second compound 3.16 µM, first compound 10 µM", "value": 0.58, "unit": "%"},
      {"measurement": "viability, T/C", "setting": "second compound 10 µM, first compound 0.0316 µM", "value": 57.3, "unit": "%"},
      {"measurement": "viability, T/C", "setting": "second compound 10 µM, first compound 0.1 µM", "value": 55.8, "unit": "%"},
      {"measurement": "viability, T/C", "setting": "second compound 10 µM, first compound 0.316 µM", "value": 55.8, "unit": "%"},
      {"measurement": "viability, T/C", "setting": "second compound 10 µM, first compound 1 µM", "value": 35.3, "unit": "%"},
      {"measurement": "viability, T/C", "setting": "second compound 10 µM, first compound 3.16 µM", "value": 11.9, "unit": "%"},
      {"measurement": "viability, T/C", "setting": "second compound 10 µM, first compound 10 µM", "value": 0.28, "unit": "%"}
    ]}
  ]
}
